Two compounds from US7829280B2, “Process for reducing interferences in luciferase enzyme assays” (LuminUltra Technologies Ltd., priority 2007, dated 2010) can be followed below.

Experiment [1] addresses T1, firefly luciferase (Photinus pyralis, UniProt P08659). Put plainly: Combined treatment with soluble (β-cyclodextrin) and insoluble (IRC-748) neutralizers of ADBAC inhibition of firefly luciferase. Format: biochemical. To be noted: β-cyclodextrin 3,750 mg/L, resin 1 part per 3 parts. As to the method: Four dilution series were prepared from this stock solution. One series was diluted only in a phosphate buffer. Another identical series was prepared in the phosphate buffer but was pre-treated with IRC-748 chelating resin (3 parts solution treated with one part resin) prior to assaying for ATP. […] The fourth series was prepared in the same way as the third series, except that each member of the series was pre-treated with IRC-748 chelating resin (3 parts solution treated with one part resin) prior to assaying for ATP. All solutions were assayed for ATP by mixing 100 microliters of solution with 100 microliters of luciferase reagent and measuring the light produced in a Kikkoman luminometer.
The experiment described in Example 5 compares the ability of a soluble agent (β-cyclodextrin) and an insoluble agent (chelating resin, IRC-748) and their combination to neutralize the inhibition of the bioluminescent reaction catalyzed by firefly luciferase.
A concentrate of cyclodextrin was added to the ATP solutions in some of the tests to maintain concentration of 3,750 mg/L through the dilution series.

In experiment [2] the target is T1, firefly luciferase. Put plainly: Firefly luciferase assay of ATP standard solution containing ADBAC, with and without chelating resin pre-treatment. Format: biochemical. The note with it: phosphate buffer ATP solution containing 1000 mg/L ADBAC. As to the method:
The light produced in this reaction was measured in a luminometer (Kikkoman C-100 Lumitester). Several dilutions of this ATP solution were also prepared in phosphate buffer and tested. In addition, a 3 mL portion of this solution was mixed with 1 mL of a chelating resin (IRC748, Rohm and Haas Company) and similarly diluted in phosphate buffer, then assayed for ATP.

The target in experiment [3] is T2, luciferase (Photinus pyralis, UniProt P08659). Kind of experiment: Luciferase activity in ATP standard spiked with ADBAC after treatment with various resins. Format: biochemical, firefly. The note with it: 10 ng/mL ATP. Here is the method:
The experiment was conducted in the same format as described for the first experiment by testing an ATP standard solution spiked with ADBAC. The dilution required to remove inhibition following treatment with an ion-exchange resin was the same as the test condition in which no resin treatment was applied. In contrast, a ¼ fold dilution removed almost all of the inhibition in the solution that had been pre-treated with the chelating resin. Again, the luciferase activity in an undiluted solution treated with the chelating resin provided a response many times greater than untreated solution or solution treated with ion exchange resins.
It should be noted that Table 4 is constructed from results of 2 different experiments. In order to facilitate comparison, the results are expressed as enzyme activity instead of instrument reading. Luciferase activity was calculated by dividing the RLU of each test condition by the RLU of an uninhibited reaction and expressing the results as a percentage.

Experiment [4] deals with T1, firefly luciferase. Put plainly: Firefly luciferase assay for ATP in ADBAC extract of wastewater effluent, with and without chelating resin. Format: biochemical. As to the method:
The ATP released by this process was measured in a Kikkoman luminometer by mixing 100 microliters of the mixture and combining it with 100 microliters of a luciferase assay mixture. Several dilutions of this ATP extract were also prepared in phosphate buffer and tested. In addition, a 3 mL portion of the ATP extract was mixed with 1 mL of a chelating resin (IRC748, Rohm and Haas Company) and similarly diluted in phosphate buffer, then assayed for ATP.
Further dilutions were made in a phosphate buffer. The chelating resin was IRC-748. The resin treatment consisted of mixing 1 mL of resin with 3 mL of extract, then allowing the resin beads to settle before ATP analysis.

Experiment [5] addresses T2, luciferase. Kind of experiment: Luciferase assay for ATP in ADBAC extract of wastewater effluent (different date), 2 mL resin or two 1 mL portions. Format: biochemical, firefly. The note with it: no extract pre-treatment. As to the method: Further dilutions were made in a phosphate buffer. The chelating resin was IRC-748. The resin treatment consisted of mixing 2 mL of resin with 3 mL of extract, then allowing the resin beads to settle before ATP analysis. In a variation of this analysis, 3 mL of sample were treated with 1 mL of resin and the supernatant of this treatment was treated to a second 1 mL portion of resin prior to ATP analysis.

T2 sequence (P08659 whole entry): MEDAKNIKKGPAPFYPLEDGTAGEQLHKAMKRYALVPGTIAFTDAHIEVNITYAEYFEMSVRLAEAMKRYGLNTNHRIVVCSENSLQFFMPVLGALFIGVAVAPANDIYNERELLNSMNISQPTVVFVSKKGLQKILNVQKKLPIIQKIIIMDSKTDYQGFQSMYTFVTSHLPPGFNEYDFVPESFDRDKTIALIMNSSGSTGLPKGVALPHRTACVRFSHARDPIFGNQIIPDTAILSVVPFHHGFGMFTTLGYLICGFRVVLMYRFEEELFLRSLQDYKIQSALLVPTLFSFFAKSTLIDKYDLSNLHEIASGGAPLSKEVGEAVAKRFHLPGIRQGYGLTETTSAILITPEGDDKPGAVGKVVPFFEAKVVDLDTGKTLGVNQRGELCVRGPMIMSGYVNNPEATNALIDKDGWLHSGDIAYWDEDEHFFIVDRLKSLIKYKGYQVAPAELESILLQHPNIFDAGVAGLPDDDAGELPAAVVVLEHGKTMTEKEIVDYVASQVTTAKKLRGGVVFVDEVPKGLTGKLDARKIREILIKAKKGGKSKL
T1 sequence (P08659 whole entry): as above

Take `OC[C@H]1O[C@@H]2O[C@H]3[C@H](O)[C@@H](O)[C@@H](O[C@H]4[C@H](O)[C@@H](O)[C@@H](O[C@H]5[C@H](O)[C@@H](O)[C@@H](O[C@H]6[C@H](O)[C@@H](O)[C@@H](O[C@H]7[C@H](O)[C@@H](O)[C@@H](O[C@H]8[C@H](O)[C@@H](O)[C@@H](O[C@H]1[C@H](O)[C@H]2O)O[C@@H]8CO)O[C@@H]7CO)O[C@@H]6CO)O[C@@H]5CO)O[C@@H]4CO)O[C@@H]3CO` [β-cyclodextrin]: the RLU was found to be 606 RLU at firefly luciferase [1] (dilution 1/16 of 7200 mg/L ADBAC, 1 ng ATP per mL stock); 96 RLU at firefly luciferase [1] (dilution ¼ of 7200 mg/L ADBAC, 1 ng ATP per mL stock); 3 RLU at firefly luciferase [1] (dilution ½ of 7200 mg/L ADBAC, 1 ng ATP per mL stock (3600 mg/L ADBAC, 0.5 ng/mL ATP)); 1227 RLU on firefly luciferase [1] (dilution ⅛ of 7200 mg/L ADBAC, 1 ng ATP per mL stock).

As to “alkyl dimethybenzyl ammonium chloride [ADBAC]”, on firefly luciferase [2], the “dilution factor needed to overcome luciferase inhibition” value was found to be 8. Further, the “Luciferase Activity (% of activity in the absence of ADBAC)” value is on record as 100% on luciferase [3] (dilution 1/16, 1000 mg/L ADBAC stock in phosphate buffer); 0.01% at luciferase [3] (dilution None, 1000 mg/L ADBAC in phosphate buffer); 33% at luciferase [3] (dilution ¼, 1000 mg/L ADBAC stock in phosphate buffer); 6.7% at luciferase [3] (dilution ½, 1000 mg/L ADBAC stock in phosphate buffer); 100% at luciferase [3] (dilution ⅛, 1000 mg/L ADBAC stock in phosphate buffer). Moreover, the RLU on firefly luciferase [4] (dilution of ADBAC (1000 mg/L) in ATP extract 1/16, resin 1 mL per 3 mL extract) is 4,628 RLU; at firefly luciferase [4] (dilution of ADBAC (1000 mg/L) in ATP extract 1/32, resin 1 mL per 3 mL extract), 2,401 RLU; at firefly luciferase [4] (dilution of ADBAC (1000 mg/L) in ATP extract ¼, resin 1 mL per 3 mL extract), 4,658 RLU; on firefly luciferase [4] (dilution of ADBAC (1000 mg/L) in ATP extract ½, resin 1 mL per 3 mL extract), 1,489 RLU; on luciferase [5] (dilution of ADBAC in ATP extract 1/16), 3100 RLU; on luciferase [5] (dilution of ADBAC in ATP extract 1/32) it was 1551 RLU. Besides, the RLU is on record as 7,310 RLU on luciferase [5] (dilution of ADBAC in ATP extract ¼), 209 RLU on luciferase [5] (dilution of ADBAC in ATP extract ½) and 6064 RLU at luciferase [5] (dilution of ADBAC in ATP extract ⅛).
